Data set [1] concerns the target Insulin-like growth factor 1 receptor (Homo sapiens, UniProt P08069). In words: Inhibition of IGF1R (unknown origin) using poly-G1 as substrate incubated for 10 mins prior to substrate addition measured after 1 hr by time-resolved fluorescence assay.
The nature of data set [2]: Growth inhibition of human COLO205 cells after 48 hrs by propidium iodide staining-based fluorescence assay. It counts as functional, cell-based. Particulars: COLO 205, 48 h; call rule not given here.
For another data set, the system named is MCF7. In words: Growth inhibition of human MCF7 cells after 48 hrs by propidium iodide staining-based fluorescence assay. In kind it is functional, cell-based. Particulars: MCF7, 48 h.
Data set [3] is described as follows: Half life in Sprague-Dawley rat at 10 mg/kg, po. In kind it is ADME, organism-based. Set-up: dose 10 mg/kg, route oral. The settings on record: in vivo.
Data set [4] is described as follows: Oral bioavailability in Sprague-Dawley rat at 10 mg/kg. The settings on record: in vivo. In kind it is ADME, organism-based.
A short description of data set [5]: Clearance in Sprague-Dawley rat at 2 mg/kg, iv. In kind it is ADME, organism-based. Further details: dose 2 mg/kg, route intravenous. Particulars: in vivo.
A short description of data set [6]: Growth inhibition of human H460 cells after 48 hrs by propidium iodide staining-based fluorescence assay. It counts as functional, cell-based. The settings on record: NCI-H460, 48 h.
The nature of data set [7]: Volume of distribution at steady state in Sprague-Dawley rat at 2 mg/kg, iv. In kind it is ADME, organism-based. Further details: dose 2 mg/kg, route intravenous. Particulars: in vivo, read-out: Vdss.
The next data set relates to MDA-MB-231. In words: Growth inhibition of human MDA-MB-231 cells after 48 hrs by propidium iodide staining-based fluorescence assay. In kind it is functional, cell-based. The settings on record: MDA-MB-231, 48 h.
The next data set has as its system NCI-H1975. The experiment in a line: Growth inhibition of human NCI-H1975 cells after 48 hrs by propidium iodide staining-based fluorescence assay. Particulars: NCI-H1975, 48 h. In kind it is functional, cell-based.
Data set [8] is described as follows: Initial concentration in Sprague-Dawley rat at 2 mg/kg, iv. It counts as ADME, organism-based. Further details: dose 2 mg/kg, route intravenous. Particulars: in vivo.
In another data set the target is Insulin receptor (Homo sapiens, UniProt P06213). In words: Inhibition of IR (unknown origin) using poly-G1 as substrate incubated for 10 mins prior to substrate addition measured after 1 hr by time-resolved fluorescence assay.
Sequence of Insulin receptor (P06213 28-758 limits assumed): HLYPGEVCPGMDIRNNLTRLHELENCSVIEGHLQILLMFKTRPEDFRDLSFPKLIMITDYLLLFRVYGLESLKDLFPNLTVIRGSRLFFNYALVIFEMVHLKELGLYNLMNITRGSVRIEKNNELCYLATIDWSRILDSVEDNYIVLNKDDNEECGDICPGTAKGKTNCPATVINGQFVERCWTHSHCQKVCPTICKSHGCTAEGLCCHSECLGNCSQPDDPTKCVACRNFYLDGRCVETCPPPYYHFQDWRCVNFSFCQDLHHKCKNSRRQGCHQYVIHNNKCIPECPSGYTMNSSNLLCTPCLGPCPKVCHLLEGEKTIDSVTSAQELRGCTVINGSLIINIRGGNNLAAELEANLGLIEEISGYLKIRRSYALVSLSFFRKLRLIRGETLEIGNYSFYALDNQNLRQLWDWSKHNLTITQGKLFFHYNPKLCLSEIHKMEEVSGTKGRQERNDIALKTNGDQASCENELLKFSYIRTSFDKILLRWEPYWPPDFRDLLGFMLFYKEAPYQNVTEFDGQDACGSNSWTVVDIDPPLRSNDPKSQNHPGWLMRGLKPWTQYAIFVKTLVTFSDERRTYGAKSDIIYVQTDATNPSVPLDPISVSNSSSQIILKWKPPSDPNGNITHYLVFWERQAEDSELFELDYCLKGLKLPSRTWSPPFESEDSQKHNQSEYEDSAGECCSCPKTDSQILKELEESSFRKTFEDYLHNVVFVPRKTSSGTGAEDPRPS
Sequence of Insulin receptor (P06213 763-1382 limits assumed): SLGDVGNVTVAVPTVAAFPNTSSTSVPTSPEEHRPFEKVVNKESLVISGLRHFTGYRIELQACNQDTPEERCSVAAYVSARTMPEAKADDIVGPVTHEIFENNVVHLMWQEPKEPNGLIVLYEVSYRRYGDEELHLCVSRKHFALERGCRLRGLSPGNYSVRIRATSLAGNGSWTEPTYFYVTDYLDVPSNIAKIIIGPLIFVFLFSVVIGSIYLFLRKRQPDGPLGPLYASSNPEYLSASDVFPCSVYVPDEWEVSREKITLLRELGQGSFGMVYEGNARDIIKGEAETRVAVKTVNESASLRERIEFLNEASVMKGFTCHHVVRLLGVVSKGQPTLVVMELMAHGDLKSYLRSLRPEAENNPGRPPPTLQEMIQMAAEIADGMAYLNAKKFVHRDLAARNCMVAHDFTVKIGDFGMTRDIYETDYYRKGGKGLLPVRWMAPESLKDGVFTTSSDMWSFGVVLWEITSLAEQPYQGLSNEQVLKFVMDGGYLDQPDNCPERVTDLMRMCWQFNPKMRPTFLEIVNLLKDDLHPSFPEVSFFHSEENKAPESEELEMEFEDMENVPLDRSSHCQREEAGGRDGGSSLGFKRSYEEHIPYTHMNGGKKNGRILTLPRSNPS
For the next data set, the system named is A-431. In words: Growth inhibition of human A431 cells after 48 hrs by propidium iodide staining-based fluorescence assay. In kind it is functional, cell-based. The settings on record: A-431, 48 h.
Data set [9] can be described thus: Growth inhibition of human HCT116 cells after 48 hrs by propidium iodide staining-based fluorescence assay. It counts as functional, cell-based. The settings on record: HCT-116, 48 h.
A short description of data set [10]: Half life in Sprague-Dawley rat at 2 mg/kg, iv. In kind it is ADME, organism-based. Set-up: dose 2 mg/kg, route intravenous. The settings on record: in vivo.

Sequence of Insulin-like growth factor 1 receptor (P08069 31-736 limits assumed): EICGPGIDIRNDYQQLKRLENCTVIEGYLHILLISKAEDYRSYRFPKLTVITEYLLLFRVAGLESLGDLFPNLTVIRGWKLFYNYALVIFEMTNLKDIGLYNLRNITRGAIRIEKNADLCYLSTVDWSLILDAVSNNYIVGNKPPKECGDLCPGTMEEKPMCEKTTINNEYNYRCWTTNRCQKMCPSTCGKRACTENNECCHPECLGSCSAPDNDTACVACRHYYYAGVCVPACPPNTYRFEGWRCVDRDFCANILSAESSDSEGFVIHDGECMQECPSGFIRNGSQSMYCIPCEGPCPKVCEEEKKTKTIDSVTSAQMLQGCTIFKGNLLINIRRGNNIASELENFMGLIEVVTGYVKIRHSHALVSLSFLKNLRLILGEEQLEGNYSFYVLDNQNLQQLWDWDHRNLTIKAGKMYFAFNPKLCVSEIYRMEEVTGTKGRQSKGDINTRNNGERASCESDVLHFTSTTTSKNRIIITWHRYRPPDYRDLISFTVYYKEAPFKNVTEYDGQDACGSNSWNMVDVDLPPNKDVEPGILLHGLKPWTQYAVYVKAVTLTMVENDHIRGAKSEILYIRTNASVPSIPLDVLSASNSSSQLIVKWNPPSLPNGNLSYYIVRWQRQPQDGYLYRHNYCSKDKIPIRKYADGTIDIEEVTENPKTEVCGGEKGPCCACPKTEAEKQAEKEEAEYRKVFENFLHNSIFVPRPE
Sequence of Insulin-like growth factor 1 receptor (P08069 741-1367 limits assumed): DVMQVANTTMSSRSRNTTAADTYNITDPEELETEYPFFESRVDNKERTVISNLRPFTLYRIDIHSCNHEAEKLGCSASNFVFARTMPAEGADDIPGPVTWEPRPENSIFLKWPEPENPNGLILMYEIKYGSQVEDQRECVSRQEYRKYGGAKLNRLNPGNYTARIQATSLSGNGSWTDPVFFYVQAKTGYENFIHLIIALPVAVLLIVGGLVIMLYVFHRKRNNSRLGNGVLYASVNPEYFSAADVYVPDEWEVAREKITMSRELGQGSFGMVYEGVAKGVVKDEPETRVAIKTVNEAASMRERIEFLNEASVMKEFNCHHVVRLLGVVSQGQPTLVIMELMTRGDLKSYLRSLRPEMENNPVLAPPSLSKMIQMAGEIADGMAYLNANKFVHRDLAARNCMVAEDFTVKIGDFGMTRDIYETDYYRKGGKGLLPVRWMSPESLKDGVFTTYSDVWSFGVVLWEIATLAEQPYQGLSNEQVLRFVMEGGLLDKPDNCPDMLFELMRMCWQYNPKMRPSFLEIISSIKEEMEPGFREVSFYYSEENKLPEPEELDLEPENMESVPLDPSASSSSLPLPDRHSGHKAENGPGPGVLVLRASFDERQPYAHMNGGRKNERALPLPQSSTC

For the compound `Cc1cc(Nc2nc(N3CCC(C)CC3)nc3c2CCC3)n[nH]1`, in data set [1], the half-inhibitory concentration (IC50) result is “Not Active”. Regarding `CN(C)CCN(C)c1nc2c(c(Nc3cc(C4CC4)[nH]n3)n1)CCC2`, the IC50 in [1] (read-out: IC50) is above 1000 nM. Same read-out and setting: in the case of `c1c(Nc2nc(N3CCNCC3)nc3c2CCC3)n[nH]c1C1CC1` it was above 1000 nM; in that of `c1c(Nc2nc(N3CCCCC3)nc3c2CCC3)n[nH]c1C1CC1`, 32 nM; in that of `OCC1CCCN(c2nc3c(c(Nc4cc(C5CC5)[nH]n4)n2)CCC3)C1` (centres undefined), 90 nM. As for `CCN(CC)C(=O)C1CCCN(c2nc3c(c(Nc4cc(C5CC5)[nH]n4)n2)CCC3)C1` (centres undefined), the IC50 in data set [1] (read-out: IC50) was 184 nM. Take `CC1CCN(c2nc3c(c(Nc4cc(C5CC5)[nH]n4)n2)CCC3)CC1`: the IC50 in [2] amounted to 2190 nM; in the data set with MCF7 it was 1670 nM; in [6] it was 180 nM; with MDA-MB-231, 700 nM; with NCI-H1975, 3000 nM; against Insulin receptor, 110 nM. In addition, the values for the IC50 (in the data set on A-431; in data set [9]; in data set [1] (read-out: IC50)) were 340 nM, 350 nM and 20 nM, respectively. Besides, the figures for the half-life in [3] and in data set [10] were 52.2 min and 51 min, respectively. In [4], this compound showed a bioavailability of 11.3%. For the same compound, the clearance in data set [5] is 59.1 mL/min/kg. The Vd in data set [7] came to 4.37 L/kg. In addition, the C0 in data set [8] is 1050 ng/mL. As for `CC1(C)CCN(c2nc3c(c(Nc4cc(C5CC5)[nH]n4)n2)CCC3)CC1`, in [1] (read-out: IC50), the IC50 stood at 203 nM. The same measure, in the same setting: as for `CCOC(=O)C1CCN(c2nc3c(c(Nc4cc(C5CC5)[nH]n4)n2)CCC3)CC1`, the figure is 35 nM. Regarding `N#CC1CCN(c2nc3c(c(Nc4cc(C5CC5)[nH]n4)n2)CCC3)CC1`, the IC50 in data set [1] (read-out: IC50) stood at 124 nM. Same read-out and setting: as for `O=C(O)C1CCN(c2nc3c(c(Nc4cc(C5CC5)[nH]n4)n2)CCC3)CC1`, the figure is above 1000 nM. On the same count and under the same terms, in the case of `c1c(Nc2nc(N3CCCCCC3)nc3c2CCC3)n[nH]c1C1CC1` it was 10 nM.

Take `c1c(Nc2nc(N3CCCCCCC3)nc3c2CCC3)n[nH]c1C1CC1`: the IC50 in [1] (read-out: IC50) was determined as 58 nM.

As to `c1c(Nc2nc(N3CC4CCC3C4)nc3c2CCC3)n[nH]c1C1CC1` (centres undefined), the IC50 in data set [1] (read-out: IC50) was 41 nM. For the compound `c1ccc(CNc2nc3c(c(Nc4cc(C5CC5)[nH]n4)n2)CCC3)cc1`, the IC50 in data set [1] (read-out: IC50) was 267 nM.

Turning to `Cc1ccc(CNc2nc3c(c(Nc4cc(C5CC5)[nH]n4)n2)CCC3)cc1`, the IC50 in data set [1] (read-out: IC50) is 149 nM. Still for that read-out and setting: in the case of `CC1CCN(c2nc3c(c(Nc4cc(-c5ccccc5)[nH]n4)n2)CCC3)CC1` it was above 1000 nM.

`c1ccc(-c2cc(Nc3nc(N4CCCCCC4)nc4c3CCC4)n[nH]2)cc1`: in [1] (read-out: IC50), the IC50 was above 1000 nM.

With `c1ccc(-c2nc3c(c(Nc4cc(C5CC5)[nH]n4)n2)CCC3)cc1`, in data set [1] (read-out: IC50), the IC50 was 97 nM.

Take `Cc1cc(Nc2nc(N3CCCCC3)nc3c2CCC3)n[nH]1`: the IC50 in data set [1] (read-out: IC50) is 442 nM.

`Cc1cc(Nc2nc(N3CCCCCC3)nc3c2CCC3)n[nH]1`: in data set [1] (read-out: IC50), the IC50 is 2000 nM.

Turning to `CCOC(=O)C1CCCN(c2nc3c(c(Nc4cc(C)[nH]n4)n2)CCC3)C1` (centres undefined), the IC50 in data set [1] (read-out: IC50) was determined as 970 nM. On the same count and under the same terms, as for `CC(C)(C)c1cc(Nc2nc(N3CCCCC3)nc3c2CCC3)n[nH]1`, the figure is 251 nM; as for `CC1CCN(c2nc3c(c(Nc4cc(C(C)(C)C)[nH]n4)n2)CCC3)CC1`, 300 nM; as for `CC(C)(C)c1cc(Nc2nc(N3CCCCCC3)nc3c2CCC3)n[nH]1`, 568 nM. For the compound `CCOC(=O)C1CCCN(c2nc3c(c(Nc4cc(C(C)(C)C)[nH]n4)n2)CCC3)C1` (centres undefined), in [1] (read-out: IC50), the IC50 is 108 nM.

For the compound `CC1CCN(c2nc(Nc3cc(C4CC4)[nH]n3)c3c(n2)C2CCC3C2)CC1` (centres undefined), the IC50 in [1] (read-out: IC50) was determined as 1190 nM. Regarding `CC1CCN(c2nc(Nc3cc(C4CC4)[nH]n3)c3c(n2)C(F)(F)CC3)CC1`, the IC50 in data set [1] (read-out: IC50) came to 786 nM. Same read-out and setting: in the case of `CC1CCN(c2nc(Nc3cc(C4CC4)[nH]n3)c3c(n2)C(C)(C)CC3)CC1` it was 1500 nM. Still for that read-out and setting: as for `CC1CCN(c2nc(Nc3cc(C4CC4)[nH]n3)c3c(n2)C2(CCCC2)CC3)CC1`, the figure is 2800 nM.

A word on the IC50: it is the midpoint of a concentration-inhibition curve. A word on the half-life: it is how long it takes for the measured level to halve. As a reminder, the bioavailability is the share of a dose that reaches the circulation, judged against a reference dose that is usually intravenous. Low readings indicate poor availability, high ones good availability. One may read the clearance as the volume of plasma or blood freed of the substance per unit of time.

Source of the values: ChEMBL document CHEMBL3407404, “Cyclopentyl-pyrimidine based analogues as novel and potent IGF-1R inhibitor” (Eur J Med Chem, 2015).
